Measured values as given in patent US20240124417A1, “COMPOUNDS USEFUL AS IMMUNOMODULATORS” (Bristol-Myers Squibb Company, priority 2019, published 2024).
Each block holds one compound with its values, some of them ahead of it.

Biological target: T1, PD-1/PD-L1 (Homo sapiens, UniProt Q9NZQ7)
T1 construct: TVMV protease site linker (C); made in house; host or cells: HEK293T cells
Assay: PD-1/PD-L1 Homogenous Time-Resolved Fluorescence (HTRF) binding assay
Conditions: PD-L1-His 10 nM, PD-1-Ig 20 nM
In short: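 Inhibitors pre-incubated 15 min with PD-L1-His extracellular domain (10 nM final) in dPBS with 0.1% BSA and 0.05% Tween-20, then PD-1-Ig (20 nM final) added for a further 15 min. Read-out by HTRF with europium cryptate anti-Ig (1 nM) and APC anti-His (20 nM). Related pairs: PD-1-Ig/PD-L2-His (20/5 nM), CD80-His/PD-L1-Ig (100/10 nM).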

T1 sequence (Q9NZQ7 18-239): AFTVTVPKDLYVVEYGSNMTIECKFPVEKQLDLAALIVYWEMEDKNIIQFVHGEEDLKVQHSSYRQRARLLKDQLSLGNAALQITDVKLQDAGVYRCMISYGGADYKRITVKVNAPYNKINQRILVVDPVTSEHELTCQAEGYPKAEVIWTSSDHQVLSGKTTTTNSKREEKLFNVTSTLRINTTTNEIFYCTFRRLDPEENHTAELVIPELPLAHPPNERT

SMILES: Cc1noc(C)c1CNCc1cc(Cl)c(OCc2cccc(-c3cccc(OCC4CCCN(C)C4)c3Cl)c2C)cc1OCc1cncc(C#N)c1 (stereo not shown) [Example 2597, 5-((4-chloro-5-((2′-chloro-2-methyl-3′-((1-methylpiperidin-3-yl)methoxy)-[1,1′-biphenyl]-3-yl)methoxy)-2-((((3,5-dimethylisoxazol-4-yl)methyl)amino)methyl)phenoxy)methyl)nicotinonitrile]
IC50: 2.9 nM

SMILES: Cc1n[nH]c(C)c1CNCc1cc(Cl)c(OCc2cccc(-c3cccc(OCC4CCCN(C)C4)c3Cl)c2C)cc1OCc1cncc(C#N)c1 (stereo not shown) [Example 2599, 5-((4-chloro-5-((2′-chloro-2-methyl-3′-((1-methylpiperidin-3-yl)methoxy)-[1,1′-biphenyl]-3-yl)methoxy)-2-((((3,5-dimethyl-1H-pyrazol-4-yl)methyl)amino)methyl)phenoxy)methyl)nicotinonitrile]
IC50: 1.7 nM

SMILES: Cc1nc2c(s1)CN(Cc1cc(Cl)c(OCc3cccc(-c4cccc(OCC5CCCN(C)C5)c4Cl)c3C)cc1OCc1cncc(C#N)c1)CC2 (stereo not shown) [Example 2600, 5-((4-chloro-5-((2′-chloro-2-methyl-3′-((1-methylpiperidin-3-yl)methoxy)-[1,1′-biphenyl]-3-yl)methoxy)-2-((2-methyl-6,7-dihydrothiazolo[5,4-c]pyridin-5(4H)-yl)methyl)phenoxy)methyl)nicotinonitrile]
IC50: 7.2 nM

SMILES: Cc1c(COc2cc(OCc3cncc(C#N)c3)c(CNC3CCc4[nH]ncc4C3)cc2Cl)cccc1-c1cccc(OCC2CCCN(C)C2)c1Cl (stereo not shown) [Example 2601, 5-((4-chloro-5-((2′-chloro-2-methyl-3′-((1-methylpiperidin-3-yl)methoxy)-[1,1′-biphenyl]-3-yl)methoxy)-2-(((4,5,6,7-tetrahydro-1H-indazol-5-yl)amino)methyl)phenoxy)methyl)nicotinonitrile]
IC50: 0.6 nM

SMILES: Cc1nnc(CNCc2cc(Cl)c(OCc3cccc(-c4cccc(OCC5CCCN(C)C5)c4Cl)c3C)cc2OCc2cncc(C#N)c2)[nH]1 (stereo not shown) [Example 2604, 5-((4-chloro-5-((2′-chloro-2-methyl-3′-((1-methylpiperidin-3-yl)methoxy)-[1,1′-biphenyl]-3-yl)methoxy)-2-((((5-methyl-4H-1,2,4-triazol-3-yl)methyl)amino)methyl)phenoxy)methyl)nicotinonitrile]
IC50: 2.3 nM

SMILES: Cc1c(COc2cc(OCc3cncc(C#N)c3)c(CNCc3cc(C4CC4)on3)cc2Cl)cccc1-c1cccc(OCC2CCCN(C)C2)c1Cl (stereo not shown) [Example 2607, 5-((4-chloro-5-((2′-chloro-2-methyl-3′-((1-methylpiperidin-3-yl)methoxy)-[1,1′-biphenyl]-3-yl)methoxy)-2-((((5-cyclopropylisoxazol-3-yl)methyl)amino)methyl)phenoxy)methyl)nicotinonitrile]
IC50: 4.2 nM

SMILES: Cc1c(COc2cc(OCc3cncc(C#N)c3)c(CN3CCC(c4cc[nH]n4)C3)cc2Cl)cccc1-c1cccc(OCC2CCCN(C)C2)c1Cl (stereo not shown) [Example 2608, 5-((2-((3-(1H-pyrazol-3-yl)pyrrolidin-1-yl)methyl)-4-chloro-5-((2′-chloro-2-methyl-3′-((1-methylpiperidin-3-yl)methoxy)-[1,1′-biphenyl]-3-yl)methoxy)phenoxy)methyl)nicotinonitrile]
IC50: 2.3 nM

SMILES: Cc1c(COc2cc(OCc3cncc(C#N)c3)c(CNCc3ccc4c(N)n[nH]c4c3)cc2Cl)cccc1-c1cccc(OCC2CCCN(C)C2)c1Cl (stereo not shown) [Example 2610, 5-((2-((((3-amino-1H-indazol-6-yl)methyl)amino)methyl)-4-chloro-5-((2′-chloro-2-methyl-3′-((1-methylpiperidin-3-yl)methoxy)-[1,1′-biphenyl]-3-yl)methoxy)phenoxy)methyl)nicotinonitrile]
IC50: 0.8 nM

More lines, now with the values ahead:

IC50: 2.9 nM
SMILES: Cc1c(COc2cc(OCc3cncc(C#N)c3)c(CNCc3cc(C)n(C)n3)cc2Cl)cccc1-c1cccc(OCC2CCCN(C)C2)c1Cl (stereo not shown) [Example 2596, 5-((4-chloro-5-((2′-chloro-2-methyl-3′-((1-methylpiperidin-3-yl)methoxy)-[1,1′-biphenyl]-3-yl)methoxy)-2-((((1,5-dimethyl-1H-pyrazol-3-yl)methyl)amino)methyl)phenoxy)methyl)nicotinonitrile]

IC50: 1 nM
SMILES: Cc1c(COc2cc(OCc3cncc(C#N)c3)c(CNCCc3cscn3)cc2Cl)cccc1-c1cccc(OCC2CCCN(C)C2)c1Cl (stereo not shown) [Example 2598, 5-((4-chloro-5-((2′-chloro-2-methyl-3′-((1-methylpiperidin-3-yl)methoxy)-[1,1′-biphenyl]-3-yl)methoxy)-2-(((2-(thiazol-4-yl)ethyl)amino)methyl)phenoxy)methyl)nicotinonitrile]

IC50: 1.6 nM
SMILES: Cc1c(COc2cc(OCc3cncc(C#N)c3)c(CNCc3cc4ccccn4n3)cc2Cl)cccc1-c1cccc(OCC2CCCN(C)C2)c1Cl (stereo not shown) [Example 2602, 5-((4-chloro-5-((2′-chloro-2-methyl-3′-((1-methylpiperidin-3-yl)methoxy)-[1,1′-biphenyl]-3-yl)methoxy)-2-(((pyrazolo[1,5-a]pyridin-2-ylmethyl)amino)methyl)phenoxy)methyl)nicotinonitrile]

IC50: 0.9 nM
SMILES: Cc1nc(CNCc2cc(Cl)c(OCc3cccc(-c4cccc(OCC5CCCN(C)C5)c4Cl)c3C)cc2OCc2cncc(C#N)c2)no1 (stereo not shown) [Example 2603, 5-((4-chloro-5-((2′-chloro-2-methyl-3′-((1-methylpiperidin-3-yl)methoxy)-[1,1′-biphenyl]-3-yl)methoxy)-2-((((5-methyl-1,2,4-oxadiazol-3-yl)methyl)amino)methyl)phenoxy)methyl)nicotinonitrile]

IC50: 0.6 nM
SMILES: Cc1c(COc2cc(OCc3cncc(C#N)c3)c(CNCCc3nc4ccccc4n3C)cc2Cl)cccc1-c1cccc(OCC2CCCN(C)C2)c1Cl (stereo not shown) [Example 2605, 5-((4-chloro-5-((2′-chloro-2-methyl-3′-((1-methylpiperidin-3-yl)methoxy)-[1,1′-biphenyl]-3-yl)methoxy)-2-(((2-(1-methyl-1H-benzo[d]imidazol-2-yl)ethyl)amino)methyl)phenoxy)methyl)nicotinonitrile]

IC50: 1.4 nM
SMILES: Cc1c(COc2cc(OCc3cncc(C#N)c3)c(CNCc3ccc4cc[nH]c4c3)cc2Cl)cccc1-c1cccc(OCC2CCCN(C)C2)c1Cl (stereo not shown) [Example 2606, 5-((2-((((1H-indol-6-yl)methyl)amino)methyl)-4-chloro-5-((2′-chloro-2-methyl-3′-((1-methylpiperidin-3-yl)methoxy)-[1,1′-biphenyl]-3-yl)methoxy)phenoxy)methyl)nicotinonitrile]

IC50: 1.1 nM
SMILES: Cc1nc2ccc(CNCc3cc(Cl)c(OCc4cccc(-c5cccc(OCC6CCCN(C)C6)c5Cl)c4C)cc3OCc3cncc(C#N)c3)cc2[nH]1 (stereo not shown) [Example 2609, 5-((4-chloro-5-((2′-chloro-2-methyl-3′-((1-methylpiperidin-3-yl)methoxy)-[1,1′-biphenyl]-3-yl)methoxy)-2-((((2-methyl-1H-benzo[d]imidazol-6-yl)methyl)amino)methyl)phenoxy)methyl)nicotinonitrile]

IC50: 5.9 nM
SMILES: Cc1c(COc2cc(OCc3cncc(C#N)c3)c(CNCc3nc4ccccc4s3)cc2Cl)cccc1-c1cccc(OCC2CCCN(C)C2)c1Cl (stereo not shown) [Example 2611, 5-((2-(((benzo[d]thiazol-2-ylmethyl)amino)methyl)-4-chloro-5-((2′-chloro-2-methyl-3′-((1-methylpiperidin-3-yl)methoxy)-[1,1′-biphenyl]-3-yl)methoxy)phenoxy)methyl)nicotinonitrile]
